{"source": "the supplement of paper PMC10307832", "experiment_in_all_cases": "relative viability (nuclei count vs DMSO), 5 days (fraction); higher = more cells survive", "key": {"[1]": {"tested_on": "SK-MES-1", "how_it_was_run": "(§1)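 Lung cancer cell lines were pin-tool dosed in 1536-well plates on the day after seeding, with either a lone drug or a fixed anchor-drug dose plus five library-drug doses (not always all listed) in √10 steps. Nuclei were counted on 4× images after 5 days. Relative viability is the ratio of treated-well to vehicle-well nuclei counts, with each value a median of duplicate plates.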"}, "[2]": {"tested_on": "A-427", "how_it_was_run": "as §1"}, "[3]": {"tested_on": "EKVX", "how_it_was_run": "as §1"}, "[4]": {"tested_on": "NCI-H1437", "how_it_was_run": "as §1"}, "[5]": {"tested_on": "NCI-H441", "how_it_was_run": "as §1"}, "[6]": {"tested_on": "NCI-H838", "how_it_was_run": "as §1"}, "[7]": {"tested_on": "NCI-H1975", "how_it_was_run": "as §1"}, "[8]": {"tested_on": "NCI-H358", "how_it_was_run": "as §1"}, "[9]": {"tested_on": "BEN", "how_it_was_run": "as §1"}, "[10]": {"tested_on": "HCC-827", "how_it_was_run": "as §1"}}, "data": [{"compound": "Nc1ccn([C@@H]2O[C@H](CO)[C@@H](O)[C@@H]2O)c(=O)n1", "note": "[Cytarabine] + C[C@]1(O)C[C@@H](c2nc(-c3ccc4ccc(-c5ccccc5)nc4c3)c3c(N)nccn32)C1 [Linsitinib] (partner 1 µM)", "values": [{"measurement": "relative viability", "setting": "[1]; first compound 0.05 µM", "result": 0.368}, {"measurement": "relative viability", "setting": "[1]; first compound 0.1581 µM", "result": 0.252}, {"measurement": "relative viability", "setting": "[1]; first compound 0.5 µM", "result": 0.255}, {"measurement": "relative viability", "setting": "[2]; first compound 0.005 µM", "result": 0.909}, {"measurement": "relative viability", "setting": "[2]; first compound 0.01581 µM", "result": 0.654}, {"measurement": "relative viability", "setting": "[2]; first compound 0.05 µM", "result": 0.342}, {"measurement": "relative viability", "setting": "[2]; first compound 0.1581 µM", "result": 0.181}, {"measurement": "relative viability", "setting": "[2]; first compound 0.5 µM", "result": 0.196}, {"measurement": "relative viability", "setting": "[3]; first compound 0.005 µM", "result": 0.731}, {"measurement": "relative viability", "setting": "[3]; first compound 0.01581 µM", "result": 0.853}, {"measurement": "relative viability", "setting": "[3]; first compound 0.05 µM", "result": 0.945}, {"measurement": "relative viability", "setting": "[3]; first compound 0.1581 µM", "result": 0.585}, {"measurement": "relative viability", "setting": "[3]; first compound 0.5 µM", "result": 0.242}, {"measurement": "relative viability", "setting": "[4]; first compound 0.005 µM", "result": 0.746}, {"measurement": "relative viability", "setting": "[4]; first compound 0.01581 µM", "result": 0.678}, {"measurement": "relative viability", "setting": "[4]; first compound 0.05 µM", "result": 0.477}, {"measurement": "relative viability", "setting": "[4]; first compound 0.1581 µM", "result": 0.19}, {"measurement": "relative viability", "setting": "[4]; first compound 0.5 µM", "result": 0.147}, {"measurement": "relative viability", "setting": "[5]; first compound 0.005 µM", "result": 0.467}, {"measurement": "relative viability", "setting": "[5]; first compound 0.01581 µM", "result": 0.476}, {"measurement": "relative viability", "setting": "[5]; first compound 0.05 µM", "result": 0.406}, {"measurement": "relative viability", "setting": "[5]; first compound 0.1581 µM", "result": 0.232}, {"measurement": "relative viability", "setting": "[5]; first compound 0.5 µM", "result": 0.122}, {"measurement": "relative viability", "setting": "[6]; first compound 0.005 µM", "result": 1.07}, {"measurement": "relative viability", "setting": "[6]; first compound 0.01581 µM", "result": 1.01}, {"measurement": "relative viability", "setting": "[6]; first compound 0.05 µM", "result": 0.875}, {"measurement": "relative viability", "setting": "[6]; first compound 0.1581 µM", "result": 0.418}, {"measurement": "relative viability", "setting": "[6]; first compound 0.5 µM", "result": 0.295}, {"measurement": "relative viability", "setting": "[7]; first compound 0.005 µM", "result": 0.97}, {"measurement": "relative viability", "setting": "[7]; first compound 0.01581 µM", "result": 1.08}, {"measurement": "relative viability", "setting": "[7]; first compound 0.05 µM", "result": 0.973}, {"measurement": "relative viability", "setting": "[7]; first compound 0.1581 µM", "result": 0.764}, {"measurement": "relative viability", "setting": "[7]; first compound 0.5 µM", "result": 0.356}, {"measurement": "relative viability", "setting": "[8]; first compound 0.005 µM", "result": 0.571}, {"measurement": "relative viability", "setting": "[8]; first compound 0.01581 µM", "result": 0.628}, {"measurement": "relative viability", "setting": "[8]; first compound 0.05 µM", "result": 0.494}, {"measurement": "relative viability", "setting": "[8]; first compound 0.1581 µM", "result": 0.248}, {"measurement": "relative viability", "setting": "[8]; first compound 0.5 µM", "result": 0.16}, {"measurement": "relative viability", "setting": "[9]; first compound 0.005 µM", "result": 0.616}, {"measurement": "relative viability", "setting": "[9]; first compound 0.01581 µM", "result": 0.775}, {"measurement": "relative viability", "setting": "[9]; first compound 0.05 µM", "result": 0.557}, {"measurement": "relative viability", "setting": "[9]; first compound 0.1581 µM", "result": 0.423}, {"measurement": "relative viability", "setting": "[9]; first compound 0.5 µM", "result": 0.307}, {"measurement": "relative viability", "setting": "[10]; first compound 0.005 µM", "result": 0.631}, {"measurement": "relative viability", "setting": "[10]; first compound 0.01581 µM", "result": 0.604}, {"measurement": "relative viability", "setting": "[10]; first compound 0.05 µM", "result": 0.488}, {"measurement": "relative viability", "setting": "[10]; first compound 0.1581 µM", "result": 0.266}, {"measurement": "relative viability", "setting": "[10]; first compound 0.5 µM", "result": 0.262}]}]}
